{
  "source": "patent US7632814B2",
  "about": "“HYD1 peptides as anti-cancer agents” (University of South Florida, priority 2006, dated 2009)",
  "format_in_all_cases": "cell-based",
  "key": {"[1]": {"tested_on": "prostate tumor cell", "assay": "Random haptotaxis (cell migration) on laminin 322 (laminin 5)", "details": "soluble peptide, cells grown on ligand before treatment", "excerpt": "Defining the minimal region of HYD1 necessary to potentiate drug-induced apoptosis in suspension and adherent cultures is of interest. Below is a study to determine the minimal HYD1 sequence required to block prostate tumor cell migration. Similar studies as those outlined below and using the same peptide sequences will be used to determine the minimal amino acid sequence required for potentiation of drug induced apoptosis.\nThis response to the peptide is independent of disrupting adhesion to laminin 322 (laminin 5) since the cells were grown on a ligand before treatment with the peptide. […] All other alanine-substitution mutants resulted cell migration, i.e., a loss of peptide activity.\nUsing the negative control scrambled peptide, HYDS (SEQ ID NO:44), to indicate 100% cell migration, several truncated peptides including, ikmviswkg (SEQ ID NO:22), kmviswkg (SEQ ID NO:39), and kikmviswk (SEQ ID NO:37) were effective at blocking cell migration by approximately 50%."}, "[2]": {"tested_on": "phospho-Pyk2 in 8226 cells", "assay": "Phospho-Pyk2 levels (immunoblot)"}, "[3]": {"tested_on": "caspase 8", "assay": "Caspase 8 activity in H929 cells (fluorescent substrate)", "details": "6 or 24 hrs", "method": "Cells were treated for 6 hours (FIG. 22A) or 24 hours (FIG. 22B) and caspase 8 activity was measured using a fluorescent substrate. Shown is a representative experiment performed in triplicates. The experiment was repeated twice and similar results were obtained.\nDetection of Apoptosis. A flow cytometric assay measuring Annexin V/PI staining was used to measure apoptotic cells following 24 hours of peptide exposure as previously described (Damiano J S et al. Blood, 1999; 93:1658-1667). The assay was performed in triplicate and 3 independent experiments were performed. Caspase 3 and 8 activity was measured at 6 and 24 hrs post peptide treatment per manufactures' instructions (BD Biosciences, San Jose, Calif.). The caspase assays were performed in triplicate and repeated twice."}, "[4]": {"tested_on": "8226 cells", "assay": "Lysosensor staining of acidic vesicles, confocal microscopy", "details": "100 μg/ml, six hours, compared to control cells", "method": "(§1) Lysosensor green was used to detect acidic compartments and live cell imaging was performed by confocal microscopy. Shown is a representative figure. The experiment was repeated three independent times and similar results were obtained.\n(§2) Lysosensor staining. 35 mm glass bottom microwell dishes were incubated with 10 ul Cell-tak (BD biosciences San Jose, Calif.) and 290 ul 0.5M sodium bicarbonate (Sigma) for 30 minutes. The plates were aspirated and 200,000H929 or 8226 cells were plated. Cells were then treated with either water (VC), 100 μg/ml HYD1 or 100 μg/ml HYD1S for 6 hours. After the 6-hour incubation, the plates were aspirated and washed once with warm media. Media containing 1 μM lysosensor DND-189 (Molecular Probes, Carlsbad Calif.) and 20 μM Hoechst 33342 (Molecular Probes) was added and samples were incubated for an additional 30 minutes. Samples were analyzed with a Leica DMI6000 inverted TCS SP5 confocal scanner (Leica Microsystems, Germany). 405 Diode and Argon laser lines were applied to excite the samples and tunable filters were used to minimize the crosstalk between fluorochromes. Gain, offset, and pinhole setting were identical for all samples within the treatment group. Image sections at […] were captured with photomultiplier detectors and maximum projections were prepared with the LAS AF software version 1.6.0 build 1016 (Leica Microsystems, Germany)."}, "[5]": {"tested_on": "H929 cells", "assay": "Lysosensor staining of acidic vesicles, confocal microscopy", "details": "100 μg/ml, six hours, compared to control cells", "method": "as §1, §2"}, "[6]": {"tested_on": "8226 cells", "assay": "Cell adhesion to fibronectin (crystal violet staining)", "details": "varying concentrations, 30 minutes pre-incubation, 2 hours adhesion", "method": "FIGS. 30A and 30B are graphs showing that HYD1 but not the scrambled derivative HYD1S inhibited cell adhesion of both 8226 and H929 cells to FN. Varying concentrations of either HYD1, HYD1S, or a 1:100 dilution of either α4β1 or α5β1 integrin functional blocking antibodies was added to either (FIG. 30A) 8226 cell or (FIG. 30B) H929 cells for 30 minutes prior to adding cells to either FN or BSA coated wells. Cells were allowed to adhere for 2 hours and adherent cells were measured by crystal violet staining at 540 nm. Shown is the mean and standard deviation of a representative experiment performed in quadruplicate. Three independent experiments were performed and similar results were obtained.\nQuantification of cell adhesion to fibronectin. […] Cell adhesion was detected by crystal violet staining as previously described (Damiano J S et al. Blood, 1999; 93:1658-1667; Hazlehurst L A et al. Oncogene, 2000; 19:4319-4327).\nBriefly, 8226 myeloma cells were pre-incubated with varying concentrations of either HYD1 or the scrambled HYD1S peptide for 30 minutes prior to allowing cells to attach to FN for two hours. Following two hours of cell adhesion, the amount of cells adherent to FN was measured. […] Twenty-four hours after drug treatment, apoptosis was measured by Annexin V-PE positive events by FACS analysis. […]"}},
  "note": "Where no end group is shown, it is not given here. [ ]: non-standard residue; d: D form.",
  "data": [
    {"substance": "kikmviswkg ([dK][dI][dK][dM][dV][dI][dS][dW][dK]G) [HYD1]", "values": [
      {"measurement": "blocking of random haptotaxis on laminin 322 (laminin 5)", "setting": "[1]", "value": "completely blocks random haptotaxis"},
      {"measurement": "phospho-Pyk2 levels", "setting": "[2]", "value": "decreased levels of phospho-Pyk2"},
      {"measurement": "caspase 8 activity", "setting": "[3]", "value": "no caspase 8 activity was detected"},
      {"measurement": "number and size of acidic vesicles", "setting": "[4]", "value": "increase in the number and size of acidic vesicles"},
      {"measurement": "number and size of acidic vesicles", "setting": "[5]", "value": "increase in the number and size of acidic vesicles"},
      {"measurement": "blocking of adhesion of 8226 cells to the extracellular matrix FN", "setting": "[6]", "value": "blocks adhesion of 8226 and H929 cells to the extracellular matrix FN in a dose dependent manner"}
    ]}
  ]
}
